Source: publication PMC5007466, “VCP recruitment to mitochondria causes mitophagy impairment and neurodegeneration in models of Huntington's disease” (Nature Communications, 2016)

Columns and labels:
[1] = test system: R6/2 mice; assay: Hindlimb clasping (tail suspension test); format: in vivo, mouse; conditions: R6/2, 8 to 11 weeks of age, 3 mg kg^−1 per day, n=15, versus TAT
Experimental: Male hemizygous R6/2 mice (Tg) and their age-matched wt littermates (5-week-old) were implanted with a 28-day osmotic pump (Alzet, Cupertino CA) containing TAT control peptide or HV-3 peptide, which delivered peptides to the mice at a rate of 3 mg kg^−1 per day. The first pump was implanted subcutaneously in the back of 5-week-old mice between the shoulders and replaced once, after 4 weeks.
Hindlimb clasping was assessed with the tail suspension test once a week from the ages 8 to 11 weeks in R6/2 mice. Mice were suspended by the tail for 60 s and the latency for the hindlimbs or all four paws to clasp was recorded using the score system[67]: Clasping over 10 s, score 3; 5–10 s, score 2; 0–5 s, score 1; 0 s, score 0.

[2] = test system: Cathepsin B in HdhQ111 mouse striatal cells; assay: Lysosomal Cathepsin B activity; format: cell-based; conditions: 3 uM/day for 3 days
Experimental: Figure 5 Treatment of HV-3 reduces excessive mitophagy in HD cell cultures and HD mouse brains. (a) HdhQ7 and HdhQ111 cells were treated with control siRNA (con) or VCP siRNA (siVCP) for 48 h. Mitochondria were isolated and LC3 mitochondrial levels were determined by WB. Representative blots are from three independent experiments. The quantitation of LC3 II levels on mitochondria is provided on the right. VADC was used as a loading control. (b) Flag-VCP and GFP-LC3B were co-transfected into wild-type striatal cells. Mitochondria were isolated after 36 h of transfection. The GFP-LC3B levels on mitochondria were examined by WB. VDAC was used as a loading control. Representative blots are from three independent experiments. Histogram: quantitation of GFP-LC3B mitochondrial protein level. HdhQ7 and HdhQ111 cells were treated with control peptide TAT or peptide HV-3 (3 uM/day for 3 days). (c) HdhQ111 cells were transfected with GFP-LC3B for 24 h. The number of GFP-LC3B puncta was quantitated and shown in the histogram. Scale bars: 10 μm. (d) Enzyme activity of lysosomal Cathepsin B was measured using a Cathepsin B assay kit. […] (e) Mitochondrial mass was measured by the fluorescent density of Mitotracker green. […] Histogram: the number of mitophagosomes per 100 μm^2 was counted and quantitated. Fifteen random areas in the striatum of each animal were analyzed. […]

[3] = LC/MS detection of HV-3 in mouse brain and plasma; format: in vivo; conditions: LC/MS m/z 506.4
Description: The new figures above and related figure legends have all been added to the revised manuscript. The related discussion has been added on page 17 line 2 and line 5. The methods of ITC and immunoprecipitation with biotin-peptides have been added to the Method section (see pages 21-23) of […]
Comment 3: The in vivo use of TAT-tagged HV-3 peptide lacks essential PK/PD data. What is the PK/PD of the reagent with their osmotic pump delivery? The data in Supplemental Fig. 5B is simply unacceptable, with different background between control and HV-3, and with only a few cells shown and without any quantitation. Is there any long-term toxicity of such delivery? Did they measure adaptive immune response to the HV-3 peptide? And if there is such a response, do the immune reactions rather than inhibition of mHTT-VCP interactions underlying therapeutic effects? Response: For the analysis of PK/PD, we have to subcontract with bio-company. The cost will be a minimum of $80,000. Due to limited funds, we cannot afford such an expensive experiment. Working with the Mass Spectrometry Core Facility at Cleveland Clinic Foundation Research Center, we attempted to determine the concentration of HV-3 after treatment in mice by pump implantation. […]
by protein precipitation methods (see figure below). […]
proteins in mice after treatment. The data seem to be consistent with our findings that HV-3 binds to VCP. Because of current technical constraints to dissociate peptide from the binding proteins, we were not able to test the accurate concentration of the peptide HV-3 in brain tissues and plasma. Therefore, we […]
We would appreciate it if the reviewer could understand.
Based on the reviewer’s comment, in the revised manuscript, we removed the original supplemental […]
Regarding toxicity of HV3, we performed toxicity analysis of HV-3 in mice at Stanford University. […]
ions in positive electrospray ionization and the ion at 5 charged (m/z 506.4) has the highest intensity on the Shimadzu LC/MS 8050. (B) HV-3 at 5 charged (m/z 506.4) in positive electrospray ionization was monitored. […]

CSCC[C@H](NC(=O)[C@@H](NC(=O)[C@H](CC(C)C)NC(=O)[C@@H](NC(=O)[C@H](Cc1c[nH]cn1)NC(=O)CCCCCNC(=O)[C@H](CCCNC(=N)N)NC(=O)[C@H](CCCNC(=N)N)NC(=O)[C@H](CCCNC(=N)N)NC(=O)[C@H](CCC(N)=O)NC(=O)[C@H](CCCNC(=N)N)NC(=O)[C@H](CCCNC(=N)N)NC(=O)[C@H](CCCCN)NC(=O)[C@H](CCCCN)NC(=O)[C@H](CCCNC(=N)N)NC(=O)CNC(=O)[C@@H](N)Cc1ccc(O)cc1)C(C)C)C(C)C)C(=O)N[C@@H](CS)C(=O)N[C@@H](C)C(=O)N[C@H](C(N)=O)[C@@H](C)O [HV-3]
severity of clasping behaviour [1]: significantly lower over the 4-week observation period
Cathepsin B activity [2]: reduced by treatment with HV-3
HV-3 in supernatant of plasma after protein precipitation ([3]; mice, pump implantation): not detectable
HV-3 in total brain lysates, plasma and precipitated plasma proteins ([3]; mice, pump implantation): can be detected
HV-3 in brain total lysates over time ([3]; mouse brain total lysates without protein precipitation, legend prints HV-3 (1000 nM)): day, one week and two weeks after treatment
